# Target: Protein farnesyltransferase (Rattus norvegicus, UniProt Q02293+Q04631)
# Assay: Inhibition of farnesyl transferase (FTase) of rat brain
row,IC50 [µM],Compound
1,0.02,"CSCC[C@H](NC(=O)[C@@H]1Cc2ccccc2CN1C(=O)[C@@H](NC(=O)[C@H](S)NC(=O)C(N)CCCCN)C(C)C)C(=O)O (single isomer, unassigned)"
2,50,CSCC[C@H](NC(=O)[C@@H]1Cc2ccccc2CN1C(=O)[C@H](NC(=O)[C@H](CS)NC(=O)[C@@H](N)CCCCN)C(C)C)C(=O)O (stereo in doubt; form 2)
3,1,CSCC[C@H](NC(=O)[C@H](Cc1ccccc1)NC(=O)[C@@H](NC(=O)[C@H](S)NC(=O)[C@H](N)CCCCN)C(C)C)C(=O)O
4,1,CSCC[C@H](NC(=O)[C@H](Cc1ccccc1)NC(=O)[C@H](C(C)C)N(C)C(=O)[C@H](S)NC(=O)[C@H](N)CCCCN)C(=O)O
5,100,"CSCC[C@H](NC(=O)[C@@H]1Cc2ccccc2CN1C(=O)C(NC(=O)[C@H](S)NC(=O)C(N)CCCCN)C(C)C)C(=O)O (single isomer, unassigned; form 1)"
6,0.005,CSCC[C@H](NC(=O)[C@@H]1Cc2ccccc2CN1C(=O)[C@H](C(C)C)N(C)C(=O)[C@H](S)NC(=O)[C@H](N)CCCCN)C(=O)O
7,15,"CSCC[C@H](NC(=O)[C@@H]1Cc2ccccc2CN1C(=O)C(NC(=O)[C@H](S)NC(=O)C(N)CCCCN)C(C)C)C(=O)O (single isomer, unassigned; form 2)"
8,100,CSCC[C@H](NC(=O)[C@@H]1Cc2ccccc2CN1C(=O)[C@H](NC(=O)[C@H](CS)NC(=O)[C@@H](N)CCCCN)C(C)C)C(=O)O (stereo in doubt; form 1)
9,100,CSCC[C@H](NC(=O)[C@H]1Cc2ccccc2CN1C(=O)[C@H]1CCCN1C(=O)[C@H](CS)NC(=O)[C@@H](N)CCCCN)C(=O)O
10,0.04,CSCC[C@H](NC(=O)[C@@H]1Cc2ccccc2CN1C(=O)[C@@H](NC(=O)[C@H](S)NC(=O)[C@H](N)CCCCN)C(C)(C)C)C(=O)O
11,1,CSCC[C@H](NC(=O)[C@@H](NC(=O)[C@@H](NC(=O)[C@H](S)NC(=O)[C@H](N)CCCCN)C(C)(C)C)c1ccccc1)C(=O)O
12,2,"CSCC[C@H](NC(=O)[C@@H]1Cc2ccccc2CN1C(=O)[C@@H]1CCCN1C(=O)[C@H](S)NC(=O)C(N)CCCCN)C(=O)O (single isomer, unassigned)"
13,1,CSCC[C@H](NC(=O)[C@@H](NC(=O)[C@H](C(C)C)N(C)C(=O)[C@H](S)NC(=O)[C@H](N)CCCCN)c1ccccc1)C(=O)O
